How the values were obtained:
Assay type in all cases: in vivo
[1] = test system: brown planthopper (Nilaparvata lugens); assay: Nilaparvata lugens spray test; conditions: 96 h, after 4 days; for mortality at 100 g/ha: application rate 100 g/ha; for mortality at 500 g/ha: application rate 500 g/ha
Method: Nilaparvata lugens—Spray Test
Solvent: 78.0 parts by weight of acetone • • 1.5 parts by weight of dimethylformamide
(§1) Emulsifier: alkylarylpolyglycol ether
(§2) To produce a suitable preparation of active compound, 1 part by weight of active compound is mixed with the stated amount of solvents and is diluted with water, containing an emulsifier concentration of 1000 ppm, to the desired concentration. Further test concentrations are prepared by dilution with emulsifier containing water.
Rice plants (Oryza sativa) are sprayed with a preparation of the active ingredient of the desired concentration and the plants are infested with the brown planthopper (Nilaparvata lugens).
After 4 days mortality in % is determined. 100% means all planthoppers have been killed and 0% means none of the planthoppers have been killed.

[2] = test system: two spotted spidermite (Tetranychus urticae); assay: Tetranychus urticae spray test OP-resistant; conditions: 144 h, application rate 100 g/ha, after 6 days
Method: Tetranychus urticae—Spray Test OP-Resistant
Solvent: 78.0 parts by weight acetone • 1.5 parts by weight dimethylformamide
as §1, §2
French bean (Phaseolus vulgaris) leaf disks infected with all instars of the two spotted spidermite (Tetranychus urticae), are sprayed with a preparation of the active ingredient of the desired concentration.
After 6 days mortality in % is determined. 100% means all spider mites have been killed and 0% means none of the spider mites have been killed.

[3] = test system: southern root-knot nematode (Meloidogyne incognita); assay: Meloidogyne incognita test; conditions: 336 h, application rate 20 ppm, after 14 days, read-out: nematicidal activity (based on gall formation)
Method: Meloidoyne incognita—Test
Solvent: 125.0 parts by weight of acetone
To produce a suitable preparation of active compound, 1 part by weight of active compound is mixed with the stated amount of solvent, and the concentrate is diluted with water to the desired concentration.
Vessels are filled with sand, a solution of the active ingredient, a suspension containing eggs and larvae of the southern root-knot nematode (Meloidogyne incognita) and salad seeds. The salad seeds germinate and the seedlings grow. Galls develop in the roots.
After 14 days the nematicidal activity is determined based on the percentage of gall formation. 100% means no galls were found and 0% means the number of galls found on the roots of the treated plants was equal to that in untreated control plants.

| Compound | mortality at 100 g/ha [1] | mortality at 500 g/ha [1] | also measured |
| --- | --- | --- | --- |
| C[C@H](NC(=O)c1cc(Cl)cc(S(=O)(=O)C(F)F)c1)c1ncnn1-c1ncccn1 [II-34] | 100% | 100% |  |
| CC(NC(=O)c1cc(C(F)(F)F)cc(S(C)(=O)=O)c1)c1nc(Cl)nn1-c1ncccn1 (stereo not drawn) [I-30] | 100% |  |  |
| C[C@H](NC(=O)c1cc(C(F)(F)F)cc(S(C)(=O)=O)c1)c1ncnn1-c1ncccn1 [II-13] | 100% | 100% |  |
| Cc1nc([C@H](C)NC(=O)c2cc(C(F)(F)F)cc(C3(C#N)CC3)c2)n(-c2ccc(C#N)cn2)n1 [II-49] | 100% |  |  |
| C[C@H](NC(=O)c1cc(C(F)(F)F)cc(C2(C#N)CC2)c1)c1ncnn1-c1ccc(C#N)cn1 [II-47] |  |  | mortality at 100 g/ha [2]: 90% |
| C[C@H](NC(=O)c1cc(C#N)cc(C2CC2)c1)c1ncnn1-c1ncccn1 [II-54] | 100% |  |  |
| C[C@H](NC(=O)c1cc(C2CC2)cc(C(F)(F)F)c1)c1ncnn1-c1ccc(C#N)cn1 [II-26] |  |  | mortality at 100 g/ha [2]: 90% |
| C[C@H](NC(=O)c1cc(OC(F)(F)F)cc(C2CC2)c1)c1ncnn1-c1ccccn1 [II-22] |  | 90% | pest or weed control at 20 ppm [3]: 90% |
| C[C@H](NC(=O)c1cc(C#N)cc([S+](C)[O-])c1)c1ncnn1-c1ccc(C#N)cn1 (stereo partly drawn) [II-12] | 100% | 100% |  |
| Cc1nc([C@H](C)NC(=O)c2cc(C(F)(F)F)cc(S(C)(=O)=O)c2)n(-c2ccc(C#N)cn2)n1 [II-52] | 100% |  |  |
| Cc1nc([C@H](C)NC(=O)c2cc(C(F)(F)F)n(C)n2)n(-c2ncccn2)n1 [II-25] |  | 90% |  |
